Results reported in patent EP0338435A1, “3,4-Dihydroxypyrrolidin-2-one derivatives, process for their preparation, agents containing them and their use as well as the intermediates resulting from the preparation” (HOECHST AKTIENGESELLSCHAFT, priority 1988, dated 1989).
Where two headings read alike, the source gives them in different places.

How the values were obtained:
[1] = system: ECS-Amnesie; assay: inhibitory (passive) avoidance test (step-through test), reversal of ECS-induced amnesia; type: in vivo, Mäusen; conditions: po
Description: (§1) Die Verbindungen der Formel I besitzen wertvolle pharmakologische Eigenschaften, insbesondere nootrope. Die nootrope Wirkung der erfindungsgemäßen Verbindungen wurde an Mäusen, die ein Körpergewicht von 20-25 g besaßen, im inhibitory (passive) avoidance test (step-through-test) geprüft. Eine modifizierte Form der von J. Kopp. Z. Bodanecky und M.E. Jarvik beschriebenen Test-Methode wurde von J. Bures, 0. Buresova und J. Huston im "Techniques and Basic Experiments for the Study of Brain and Benavior", Elsevier Scientific Publishers, Amsterdam 1983, beschrieben.
(§2) Entsprechend diesen Literaturangaben wird eine Substanz dann als nootrop wirksam bezeichnet, wenn sie bei den Versuchstieren die mittels eines electroconvulsiven Schocks erzeugte Amnesie (ECS-Amnesie) bzw. mittels Scopolamin-Injektion erzeugte Amnesie aufzuheben vermag.
(§3) Die Versuche wurden nach modifizierten Test-Methoden mit den erfindungsgemäßen Verbindungen durchgeführt. Als Vergleichsverbindung diente das bekannte Nootropikum 2-0xo-1-pyrrolidinylessigsäurea- mid (Piracetam). Die deutliche Überlegenheit der erfindungsgemäßen Verbindungen über die Vergleichssubstanz zeigte sich darin, daß der amnestische Effekt bereits mit einer MED (minimal effective dose) von 1-10 mg/kg p.o. aufzuheben ist. Die Vergleichssubstanz hat eine MED von ca. 500-1000 mg/kg p.o.

[2] = system: Scopolamin-Amnesie; assay: inhibitory (passive) avoidance test (step-through test), reversal of scopolamine-induced amnesia; type: in vivo, Mäusen; conditions: Mus musculus, po, read-out: Inhibitory avoidance MED mg/kg p.o. Scopolamin-Amnesie
Description: as §1, §2, §3

[3] = Mus musculus, read-out: Inhibitory avoidance MED mg/kg p.o. ECS-Amnesie
[4] = mice 20-25 g, amnesia induced by scopolamine injection
[5] = Mus musculus, mice 20-25 g, amnesia induced by electroconvulsive shock, read-out: Inhibitory avoidance MED mg/kg p.o. ECS-Amnesie

Q: How did the minimal effective dose [1, 3] turn out when `CC(C)N(CCNC(=O)CN1C[C@@H](O)[C@@H](O)C1=O)C(C)C` [Beispiel 28, N-[2-(Diisopropylamino)ethyl]-2-[(3R,4R)-3,4-dihydroxypyrrolidin-2-on-1-yl]acetamid] was run?
A: The minimal effective dose was 10 mg/kg.

Q: How did the minimal effective dose [2, 4] turn out when `O=C1[C@H](O)[C@H](O)CN1Cc1ccccc1` [Beispiel 29, 1-Benzyl-(3R,4R)-3.4-dihydroxy-pyrrolidin2-on] was run?
A: The minimal effective dose was 1 mg/kg.

Q: What about the minimal effective dose [1, 5] of the same compound?
A: Its minimal effective dose is 3 mg/kg.

Q: For `Cc1ccc(CN2C[C@@H](O)[C@@H](O)C2=O)cc1` [Beispiel 33], which minimal effective dose [1, 5] is on record?
A: The minimal effective dose was 3 mg/kg.

Q: With `COc1cccc(CN2C[C@@H](O)[C@@H](O)C2=O)c1` [Beispiel 34] as the compound, how does the minimal effective dose [2, 4] read?
A: The minimal effective dose was 1 mg/kg.

Q: And the minimal effective dose [1, 5]?
A: The minimal effective dose was 3 mg/kg.

Q: For `Nc1ccc(CN2C[C@@H](O)[C@@H](O)C2=O)cc1` [Beispiel 36, 1-(4-Aminobenzyl)-(3R,4R)-3,4-dihydroxypyrrolidin-2-on], which minimal effective dose [1, 5] is on record?
A: The minimal effective dose was 3 mg/kg.

Q: With `NC(=O)CN1CCCC1=O` [Piracetam, 2-0xo-1-pyrrolidinylessigsäurea-mid, reference compound] as the compound, how does the minimal effective dose [2] read?
A: Its minimal effective dose is 500 mg/kg.

Q: What about the minimal effective dose [1, 3] of the same compound?
A: The minimal effective dose was 1000 mg/kg.

Q: What about the minimal effective dose ([1]; read-out: MED (minimal effective dose)) of the same compound?
A: Its minimal effective dose is 500 to 1000 mg/kg.
